These results are taken from the supplement of paper PMC8967900.
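Further: ALL cell lines in 384-well plates, five doses spanning 10,000-fold, each plate scaled between vehicle and 100 µmol/L benzalkonium chloride controls, sDSS an adapted area-under-curve metric.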

One assay has as its system SEM cells. In words: selective drug sensitivity score (sDSS, relative to normal bone marrow) (sDSS (score)); higher = more potent and effective on the cell line relative to normal bone marrow cells. To be noted: 72 h.
As to `C[C@H]1CNCCCN1S(=O)(=O)c1cccc2cncc(F)c12` [Ripasudil] (top concentration 10000 nM), the “selective drug sensitivity score” value is -0.22.

Take `C[C@@H](Oc1cc(-c2cnn(C3CCNCC3)c2)cnc1N)c1c(Cl)ccc(F)c1Cl` [Crizotinib] (top concentration 1000 nM): the “selective drug sensitivity score” value was -0.54.

Consider `CCN(CC)CCCC(C)Nc1ccnc2cc(Cl)ccc12` (stereo not given) [Chloroquine] (top concentration 100000 nM), for which the “selective drug sensitivity score” value was -0.74.

As for `N#CC(c1ccnc(OCc2ccc(CN3CCOCC3)cc2)n1)c1nc2ccccc2s1` (stereo not given) [Bentamapimod] (top concentration 10000 nM), the “selective drug sensitivity score” value came to 3.24.

Consider `COc1cc(N2CCC(N3CCN(C)CC3)CC2)ccc1Nc1ncnc(Nc2ccccc2S(=O)(=O)C(C)C)n1` [ASP3026] (top concentration 10000 nM), for which the “selective drug sensitivity score” value turned out to be 1.66.

`COCCOc1cnc2ccn([C@H](C)c3nnc4c(F)cc(-c5cnn(C)c5)cn34)c(=O)c2c1` [AMG-337] (top concentration 10000 nM): the “selective drug sensitivity score” value was -0.06.

For the compound `Cc1cnc(NC(=O)Nc2cc(Br)c(C)cc2OC[C@@H]2CNCCO2)cn1` [Rabusertib] (top concentration 1000 nM), the “selective drug sensitivity score” value stood at 1.26.

Consider `CNC(=O)c1ccc(-c2cnc3ncc(Cc4ccc5ncccc5c4)n3n2)cc1F` [Capmatinib] (top concentration 1000 nM), for which the “selective drug sensitivity score” value was -0.06.

Regarding `COc1cc2/c(=N/c3ccc(Br)cc3F)nc[nH]c2cc1OCC1CCN(C)CC1` [Vandetanib] (top concentration 1000 nM), the “selective drug sensitivity score” value is -0.12.

A further assay concerns SUP-B15. The assay is described as above. The conditions noted are these: 72 h.
For `Nc1ncnc2c1c(COc1cccc(Cl)c1)nn2C1CCOCC1` (top concentration 10000 nM), the “selective drug sensitivity score” value was 0.16.

As to `CC1(C)CNc2cc(NC(=O)c3cccnc3NCc3ccncc3)ccc21` [Motesanib] (top concentration 10000 nM), the “selective drug sensitivity score” value is -0.22.

Turning to `NC(=O)c1cccc(-c2cccc(OC(=O)NC3CCCCC3)c2)c1` [URB597] (top concentration 1000 nM), the “selective drug sensitivity score” value worked out at 0.94.

For the compound `CCCN(CCC)C(=O)C1=Cc2ccc(-c3ccc(C(=O)N4CCCC4)cc3)cc2N=C(N)C1` [Motolimod] (top concentration 10000 nM), the “selective drug sensitivity score” value was -3.58.

Regarding `CCCOc1ccn2c(C(C)=O)cc(-c3ccccc3S(C)(=O)=O)c2c1` [GSK2801] (top concentration 10000 nM), the “selective drug sensitivity score” value is -0.36.

With `Nc1cc(COc2c(Cl)cc(C[C@H](N)C(=O)O)cc2Cl)c2oc(-c3ccccc3)nc2c1` [JPH203] (top concentration 5000 nM), the “selective drug sensitivity score” value was 0.

As for `CC/C(=C(\c1ccccc1)c1ccc(OCCN(C)C)cc1)c1ccccc1` [Tamoxifen] (top concentration 10000 nM), the “selective drug sensitivity score” value was 3.02.

Consider `NC(=S)N/N=C/c1ncccc1N` [Triapine] (top concentration 10000 nM), for which the “selective drug sensitivity score” value stood at 2.48.

For `C=CCN(/C=C1/C(=O)O[C@H](COC)[C@@]2(C)C1=C(O)C(=O)C1=C2[C@H](OC(C)=O)C[C@]2(C)C(=O)CC[C@@H]12)CC=C` [Sonolisib] (top concentration 10000 nM), the “selective drug sensitivity score” value is -0.76.

As for `C[C@H]1CNCCCN1S(=O)(=O)c1cccc2cncc(F)c12` [Ripasudil] (top concentration 10000 nM), the “selective drug sensitivity score” value was 4.88.

Take `C[C@@H](Oc1cc(-c2cnn(C3CCNCC3)c2)cnc1N)c1c(Cl)ccc(F)c1Cl` [Crizotinib] (top concentration 1000 nM): the “selective drug sensitivity score” value turned out to be 3.86.

In the case of `CCN(CC)CCCC(C)Nc1ccnc2cc(Cl)ccc12` (stereo not given) [Chloroquine] (top concentration 100000 nM), the “selective drug sensitivity score” value is -4.14.

As to `N#CC(c1ccnc(OCc2ccc(CN3CCOCC3)cc2)n1)c1nc2ccccc2s1` (stereo not given) [Bentamapimod] (top concentration 10000 nM), the “selective drug sensitivity score” value is 2.34.

In the case of `COc1cc(N2CCC(N3CCN(C)CC3)CC2)ccc1Nc1ncnc(Nc2ccccc2S(=O)(=O)C(C)C)n1` [ASP3026] (top concentration 10000 nM), the “selective drug sensitivity score” value worked out at 1.16.

`COCCOc1cnc2ccn([C@H](C)c3nnc4c(F)cc(-c5cnn(C)c5)cn34)c(=O)c2c1` [AMG-337] (top concentration 10000 nM): the “selective drug sensitivity score” value is -0.06.

Regarding `Cc1cnc(NC(=O)Nc2cc(Br)c(C)cc2OC[C@@H]2CNCCO2)cn1` [Rabusertib] (top concentration 1000 nM), the “selective drug sensitivity score” value is -0.74.

Regarding `CNC(=O)c1ccc(-c2cnc3ncc(Cc4ccc5ncccc5c4)n3n2)cc1F` [Capmatinib] (top concentration 1000 nM), the “selective drug sensitivity score” value is -0.06.

For the compound `COc1cc2/c(=N/c3ccc(Br)cc3F)nc[nH]c2cc1OCC1CCN(C)CC1` [Vandetanib] (top concentration 1000 nM), the “selective drug sensitivity score” value came to 1.08.

In the next assay the test system is COG-LL-394h. The description is as above. The conditions noted are these: 72 h.
Consider `Nc1ncnc2c1c(COc1cccc(Cl)c1)nn2C1CCOCC1` (top concentration 10000 nM), for which the “selective drug sensitivity score” value is -0.64.

On to `CC1(C)CNc2cc(NC(=O)c3cccnc3NCc3ccncc3)ccc21` [Motesanib] (top concentration 10000 nM), for which the “selective drug sensitivity score” value was found to be 0.78.

As to `NC(=O)c1cccc(-c2cccc(OC(=O)NC3CCCCC3)c2)c1` [URB597] (top concentration 1000 nM), the “selective drug sensitivity score” value is -0.46.

Turning to `CCCN(CCC)C(=O)C1=Cc2ccc(-c3ccc(C(=O)N4CCCC4)cc3)cc2N=C(N)C1` [Motolimod] (top concentration 10000 nM), the “selective drug sensitivity score” value turned out to be 0.42.

Regarding `CCCOc1ccn2c(C(C)=O)cc(-c3ccccc3S(C)(=O)=O)c2c1` [GSK2801] (top concentration 10000 nM), the “selective drug sensitivity score” value is -0.16.

Consider `Nc1cc(COc2c(Cl)cc(C[C@H](N)C(=O)O)cc2Cl)c2oc(-c3ccccc3)nc2c1` [JPH203] (top concentration 5000 nM), for which the “selective drug sensitivity score” value was determined as 0.

For `CC/C(=C(\c1ccccc1)c1ccc(OCCN(C)C)cc1)c1ccccc1` [Tamoxifen] (top concentration 10000 nM), the “selective drug sensitivity score” value came to 2.32.

As for `NC(=S)N/N=C/c1ncccc1N` [Triapine] (top concentration 10000 nM), the “selective drug sensitivity score” value stood at 0.88.

Consider `C=CCN(/C=C1/C(=O)O[C@H](COC)[C@@]2(C)C1=C(O)C(=O)C1=C2[C@H](OC(C)=O)C[C@]2(C)C(=O)CC[C@@H]12)CC=C` [Sonolisib] (top concentration 10000 nM), for which the “selective drug sensitivity score” value was -0.66.

As to `C[C@H]1CNCCCN1S(=O)(=O)c1cccc2cncc(F)c12` [Ripasudil] (top concentration 10000 nM), the “selective drug sensitivity score” value was -0.22.

`C[C@@H](Oc1cc(-c2cnn(C3CCNCC3)c2)cnc1N)c1c(Cl)ccc(F)c1Cl` [Crizotinib] (top concentration 1000 nM): the “selective drug sensitivity score” value is 0.86.

Consider `CCN(CC)CCCC(C)Nc1ccnc2cc(Cl)ccc12` (stereo not given) [Chloroquine] (top concentration 100000 nM), for which the “selective drug sensitivity score” value is -4.54.

Take `N#CC(c1ccnc(OCc2ccc(CN3CCOCC3)cc2)n1)c1nc2ccccc2s1` (stereo not given) [Bentamapimod] (top concentration 10000 nM): the “selective drug sensitivity score” value stood at 3.44.

Regarding `COc1cc(N2CCC(N3CCN(C)CC3)CC2)ccc1Nc1ncnc(Nc2ccccc2S(=O)(=O)C(C)C)n1` [ASP3026] (top concentration 10000 nM), the “selective drug sensitivity score” value amounted to 2.36.

With `COCCOc1cnc2ccn([C@H](C)c3nnc4c(F)cc(-c5cnn(C)c5)cn34)c(=O)c2c1` [AMG-337] (top concentration 10000 nM), the “selective drug sensitivity score” value was -0.06.

Consider `Cc1cnc(NC(=O)Nc2cc(Br)c(C)cc2OC[C@@H]2CNCCO2)cn1` [Rabusertib] (top concentration 1000 nM), for which the “selective drug sensitivity score” value is -0.74.

`CNC(=O)c1ccc(-c2cnc3ncc(Cc4ccc5ncccc5c4)n3n2)cc1F` [Capmatinib] (top concentration 1000 nM): the “selective drug sensitivity score” value is -0.06.

Consider `COc1cc2/c(=N/c3ccc(Br)cc3F)nc[nH]c2cc1OCC1CCN(C)CC1` [Vandetanib] (top concentration 1000 nM), for which the “selective drug sensitivity score” value is -0.22.
